This note sets out measurements from patent US9777003B2, “Tricyclic heterocycles as bet protein inhibitors” (Incyte Corporation, priority 2013, dated 2017).

Counter-ions that a name gives are not always drawn.

For test [1], the target named is BRD4-BD1 (Homo sapiens (Human), UniProt O60885). Put plainly: BRD4 AlphaScreen assay, BRD4-BD1. It is filed as binding. The note with it: biotin-labeled tetra-acetylated histone H4 peptide, 75 min, room temperature, read-out: BRD4 BD-1 enzyme IC50. In a few lines:
(§1)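 Displacement of 50 nM biotinylated tetra-acetylated H4 peptide (H4Ac4) from BRD4-BD1 (3.8 nM) or BRD4-BD2 (20 nM) in HEPES pH 7.4, 100 mM NaCl, CHAPS, BSA; 75 min at room temperature. Streptavidin donor/GSH acceptor beads were added for a further 75 min in the dark; IC50 from percent control activity versus log concentration.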
Background: Bead proximity is the source of the signal in Alpha formats.

Test [2] concerns the target BRD4-BD2 (Homo sapiens (Human), UniProt O60885). Put plainly: BRD4 AlphaScreen assay, BRD4-BD2. It is filed as binding. The note with it: biotin-labeled tetra-acetylated histone H4 peptide, 75 min, room temperature, read-out: BRD4 BD-2 enzyme IC50. In a few lines:
as §1

By IC50 is commonly meant the concentration needed to halve the response being measured. Regarding `Cc1nnc2ccc3c(cc(C4=NCCO4)n3Cc3cccc(Cl)c3)n12` [Example 193, 6-(3-Chlorobenzyl)-7-(4,5-dihydro-1,3-oxazol-2-yl)-1-methyl-6H-pyrrolo[2,3-e][1,2,4]triazolo[4,3-a]pyridine], the IC50 in test [1] and in test [2] was no more than 100 nM in each case.

Consider `Cc1nnc2ccc3c(cc(-c4ncco4)n3Cc3cccc(Cl)c3)n12` [Example 194, 6-(3-Chlorobenzyl)-1-methyl-7-(1,3-oxazol-2-yl)-6H-pyrrolo[2,3-e][1,2,4]triazolo[4,3-a]pyridine Trifluoroacetate Salt], for which the IC50 in test [1] and in test [2] was no more than 100 nM throughout.

Turning to `Cc1nnc2ccc3c(cc(-c4ncco4)n3Cc3cc(Cl)cc(CN4CC(C)(C)C4)c3)n12` [Example 196, 6-{3-Chloro-5-[(3,3-dimethylazetidin-1-yl)methyl]benzyl}-1-methyl-7-(1,3-oxazol-2-yl)-6H-pyrrolo[2,3-e][1,2,4]triazolo[4,3-a]pyridine bis(trifluoroacetate) Salt], the IC50 in test [1] and in test [2] was no more than 100 nM throughout.

`Cc1nnc2ccc3c(cc(-c4ncco4)n3Cc3cc(Cl)cc(CN4CCCC4)c3)n12` [Example 197, 6-[3-Chloro-5-(pyrrolidin-1-ylmethyl)benzyl]-1-methyl-7-(1,3-oxazol-2-yl)-6H-pyrrolo[2,3-e][1,2,4]triazolo[4,3-a]pyridine bis(trifluoroacetate) Salt]: the IC50 in test [1] and in test [2] was no more than 100 nM in each case.

For `Cc1nnc2ccc3c(cc(-c4ncco4)n3Cc3cc(Cl)cc(CN4CC(O)C4)c3)n12` [Example 198, 1-(3-Chloro-5-{[1-methyl-7-(1,3-oxazol-2-yl)-6H-pyrrolo[2,3-e][1,2,4]triazolo[4,3-a]pyridin-6-yl]methyl}benzyl)azetidin-3-ol bis(trifluoroacetate) Salt], the IC50 in test [1] and in test [2] was no more than 100 nM throughout.

`Cc1cc2c(cc(Nc3cc[nH]n3)c3nnc(C)n32)n1Cc1ccccc1` [Example 200, 6-Benzyl-1,7-dimethyl-N-1H-pyrazol-3-yl-6H-pyrrolo[2,3-e][1,2,4]triazolo[4,3-a]pyridin-4-amine tris(trifluoroacetate) Salt]: the IC50 in test [1] and in test [2] was no more than 100 nM each time.

Regarding `Cc1cc2c(cc(Nc3ncccn3)c3nnc(C)n32)n1Cc1ccccc1` [Example 201, 6-Benzyl-1,7-dimethyl-N-pyrimidin-2-yl-6H-pyrrolo[2,3-e][1,2,4]triazolo[4,3-a]pyridin-4-amine tris(trifluoroacetate) Salt], the IC50 in test [1] and in test [2] was no more than 100 nM each time.

Consider `Cc1cc2c(cc(Nc3ccn(C)n3)c3nnc(C)n32)n1Cc1ccccc1` [Example 202, 6-Benzyl-1,7-dimethyl-N-(1-methyl-1H-pyrazol-3-yl)-6H-pyrrolo[2,3-e][1,2,4]triazolo[4,3-a]pyridin-4-amine tris(trifluoroacetate) Salt], for which the IC50 in test [1] and in test [2] was no more than 100 nM in each case.

Take `Cc1cc2c(cc(O)c3nnc(C)n32)n1Cc1ccccc1` [Example 204, 6-Benzyl-1,7-dimethyl-6H-pyrrolo[2,3-e][1,2,4]triazolo[4,3-a]pyridin-4-ol Trifluoroacetate Salt]: the IC50 in test [1] and in test [2] was no more than 100 nM in each case.

Take `Cc1cc2c(cc(NC3CCNCC3)c3nnc(C)n32)n1Cc1ccccc1` [Example 206, 6-Benzyl-1,7-dimethyl-N-piperidin-4-yl-6H-pyrrolo[2,3-e][1,2,4]triazolo[4,3-a]pyridin-4-amine]: the IC50 in test [1] and in test [2] was no more than 100 nM each time.

Regarding `Cc1cc2c(cc(NC3CCN(C)CC3)c3nnc(C)n32)n1Cc1ccccc1` [Example 207, 6-Benzyl-1,7-dimethyl-N-(1-methylpiperidin-4-yl)-6H-pyrrolo[2,3-e][1,2,4]triazolo[4,3-a]pyridin-4-amine], the IC50 in test [1] and in test [2] was no more than 100 nM throughout.

With `Cc1cc2c(cc(NCCN3CCOCC3)c3nnc(C)n32)n1Cc1ccccc1` [Example 208, 6-Benzyl-1,7-dimethyl-N-(2-morpholin-4-ylethyl)-6H-pyrrolo[2,3-e][1,2,4]triazolo[4,3-a]pyridin-4-amine], the IC50 in test [1] and in test [2] was no more than 100 nM throughout.

On to `COCCNc1cc2c(cc(C)n2Cc2ccccc2)n2c(C)nnc12` [Example 209, 6-Benzyl-N-(2-methoxyethyl)-1,7-dimethyl-6H-pyrrolo[2,3-e][1,2,4]triazolo[4,3-a]pyridin-4-amine], for which the IC50 in test [1] and in test [2] was no more than 100 nM each time.

As for `Cc1cc2c(cc(NCCO)c3nnc(C)n32)n1Cc1ccccc1` [Example 210, 2-[(6-Benzyl-1,7-dimethyl-6H-pyrrolo[2,3-e][1,2,4]triazolo[4,3-a]pyridin-4-yl)amino]ethanol], the concentration for half-maximal inhibition (IC50) in test [1] and in test [2] was no more than 100 nM in each case.

Regarding `Cc1cc2c(cc(NC3CCN(S(C)(=O)=O)CC3)c3nnc(C)n32)n1Cc1ccccc1` [Example 211, 6-Benzyl-1,7-dimethyl-N-[1-(methylsulfonyl)piperidin-4-yl]-6H-pyrrolo[2,3-e][1,2,4]triazolo[4,3-a]pyridin-4-amine], the IC50 in test [1] and in test [2] was no more than 100 nM throughout.

On to `CCN1CCC(Nc2cc3c(cc(C)n3Cc3ccccc3)n3c(C)nnc23)CC1` [Example 212, 6-Benzyl-N-(1-ethylpiperidin-4-yl)-1,7-dimethyl-6H-pyrrolo[2,3-e][1,2,4]triazolo[4,3-a]pyridin-4-amine], for which the IC50 in test [1] and in test [2] was no more than 100 nM throughout.

Regarding `Cc1cc2c(cc(NC3CCN(C(=O)OC(C)(C)C)CC3)c3nnc(C)n32)n1Cc1ccccc1` [Example 214, tert-Butyl 4-[(6-benzyl-1,7-dimethyl-6H-pyrrolo[2,3-e][1,2,4]triazolo[4,3-a]pyridin-4-yl)amino]piperidine-1-carboxylate], the results for the IC50 in test [1] and in test [2] were 100 to 1000 nM and no more than 100 nM, respectively.

`Cc1cc2c(cc(N[C@H]3CC[C@H](N)CC3)c3nnc(C)n32)n1Cc1ccccc1` [Example 217, trans-N-(6-Benzyl-1,7-dimethyl-6H-pyrrolo[2,3-e][1,2,4]triazolo[4,3-a]pyridin-4-yl)cyclohexane-1,4-diamine]: the IC50 in test [1] and in test [2] was no more than 100 nM throughout.

In the case of `Cc1cc2c(cc(N[C@H]3CC[C@@H](N)CC3)c3nnc(C)n32)n1Cc1ccccc1` [Example 218, cis-N-(6-Benzyl-1,7-dimethyl-6H-pyrrolo[2,3-e][1,2,4]triazolo[4,3-a]pyridin-4-yl)cyclohexane-1,4-diamine], the IC50 in test [1] and in test [2] was no more than 100 nM each time.

As to `CN[C@H]1CC[C@H](Nc2cc3c(cc(C)n3Cc3ccccc3)n3c(C)nnc23)CC1` [Example 219, trans-N-(6-Benzyl-1,7-dimethyl-6H-pyrrolo[2,3-e][1,2,4]triazolo[4,3-a]pyridin-4-yl)-N′-methylcyclohexane-1,4-diamine], the IC50 in test [1] and in test [2] was no more than 100 nM each time.

`CN[C@H]1CC[C@@H](Nc2cc3c(cc(C)n3Cc3ccccc3)n3c(C)nnc23)CC1` [Example 221, cis-N-(6-Benzyl-1,7-dimethyl-6H-pyrrolo[2,3-e][1,2,4]triazolo[4,3-a]pyridin-4-yl)-N′-methylcyclohexane-1,4-diamine]: the 50% inhibitory concentration (IC50) in test [1] and in test [2] was no more than 100 nM each time.

For `Cc1nnc2ccc3c(cc(C#N)n3Cc3ccccc3)n12` [Example 227, 6-Benzyl-1-methyl-6H-pyrrolo[2,3-e][1,2,4]triazolo[4,3-a]pyridine-7-carbonitrile Trifluoroacetate Salt], the IC50 in test [1] and in test [2] was no more than 100 nM each time.

Regarding `Cc1cc2c(cc(NCC3CC3)c3nnc(C)n32)n1Cc1ccccc1` [Example 228, 6-Benzyl-N-(cyclopropylmethyl)-1,7-dimethyl-6H-pyrrolo[2,3-e][1,2,4]triazolo[4,3-a]pyridin-4-amine], the concentration for half-maximal inhibition (IC50) in test [1] and in test [2] was no more than 100 nM throughout.

For `CNC(=O)Nc1cc2c(cc(C)n2Cc2ccccc2)n2c(C)nnc12` [Example 229, 1-(6-Benzyl-1,7-dimethyl-6H-pyrrolo[2,3-e][1,2,4]triazolo[4,3-a]pyridin-4-yl)-3-methylurea], the IC50 in test [1] and in test [2] was no more than 100 nM in each case.

In the case of `Cc1cc2c(cc(NC(N)=O)c3nnc(C)n32)n1Cc1cccc(C(F)(F)F)c1` [Example 230, 1-(1,7-Dimethyl-6-(3-(trifluoromethyl)benzyl)-6H-pyrrolo[2,3-e][1,2,4]triazolo[4,3-a]pyridin-4-yl)urea], the IC50 in test [1] and in test [2] was no more than 100 nM each time.

On to `Cc1cc2c(cc(NC(N)=O)c3nnc(C)n32)n1Cc1cccc(Cl)c1` [Example 231, 1-(6-(3-Chlorobenzyl)-1,7-dimethyl-6H-pyrrolo[2,3-e][1,2,4]triazolo[4,3-a]pyridin-4-yl)urea], for which the IC50 in test [1] and in test [2] was no more than 100 nM throughout.

With `Cc1cc2c(cc(NC3CCCCC3)c3nnc(C)n32)n1Cc1ccccc1` [Example 232, 6-Benzyl-N-cyclohexyl-1,7-dimethyl-6H-pyrrolo[2,3-e][1,2,4]triazolo[4,3-a]pyridin-4-amine], the IC50 in test [1] and in test [2] was 100 to 1000 nM each time.

With `Cc1cc2c(cc(NC(N)=O)c3nnc(C)n32)n1Cc1cc(F)cc(F)c1` [Example 233, 1-(6-(3,5-Difluorobenzyl)-1,7-dimethyl-6H-pyrrolo[2,3-e][1,2,4]triazolo[4,3-a]pyridin-4-yl)urea], the IC50 in test [1] and in test [2] was no more than 100 nM each time.

As to `Cc1cc2c(cc(NC(N)=O)c3nnc(C)n32)n1Cc1ccc(F)c(F)c1` [Example 234, 1-(6-(3,4-Difluorobenzyl)-1,7-dimethyl-6H-pyrrolo[2,3-e][1,2,4]triazolo[4,3-a]pyridin-4-yl)urea], the IC50 in test [1] and in test [2] was no more than 100 nM throughout.
